Data set [1] concerns RKMs. Nature of the data set: Kinetics of N-hydap glucuronidation in RKMs. The data set is classed as in vitro ADME, rat. The note with it: RKM. The protocol:
In this study, the rats were executed by drawing blood from the abdominal aorta and mice were sacrificed with cervical dislocation before the liver and kidneys were excised. The liver and kidneys were removed, and washed with chilled cleansing solution (contains 8 mM KH2PO4, 5.6 mM EDTA·K2·2H2O, 1 mM DTT and 229.6 μM PMSF), homogenized in a tissue homogenate buffer with a pH of 7.4, (consisting of […], 8 mM K2HPO4, 250 mM sucrose, 1 mM EDTA·K2·2H2O and 229.6 μM PMSF). Subsequently, the homogenate was centrifuged at 10,400 rpm at 4 °C for 15 min, and the supernatant was then centrifuged at 35,000 rpm at 4 °C for 60 min. A 250 mM sucrose buffer was added to the pellet to reconstitute and the resuspension was stored at − 80 °C until use. Microsome protein concentrations were measured by Omni-Easy™ Instant BCA Protein Assay Kit.
Various microsomes including HLMs, HKMs, HIMs, RLMs, RKMs, MLMs and MKMs were involved in CYP and UGT reactions of N-hydap. […]
The substrate concentrations used for HLMs were 0.05, 0.5, 2, 2.5, 5, 10, 25, 50, and 100 μM. […] The rates of N-hydap-G by enzymes were expressed as nmol/mg/min, representing the amount of metabolites formed per minute per milligram of protein. Kinetic parameters were determined by analyzing the Eadie–Hofstee plots. […]

Data set [2] has as its system CYP2D6. In words: DME activity ex vivo in MLMs and MKMs: CYP2D6 (DXO from DM). Also noted: species or system mice; key to CYP2D6 Enzymatic activity: ↑: up-regulation; ↓: down-regulation; –: no change. On the procedure: (§1) Mice were randomly divided into four groups, with eight animals in each group. The mice received oral pretreatment with N-hydap for 7 days at doses of 2, 5, and 10 mg/kg/day, which were considered as the low dose, medium dose, and high dose, respectively. Correspondingly, the control group received PBS. On the 8th day, the liver and kidneys were removed, and organs from eight mice per group were combined to prepare MLMs and MKMs using the detailed procedures above. Subsequently, we determined the activity of CYP and UGT enzymes by specific substrate metabolized with MLMs (0.5 mg/mL) and MKMs (0.2 mg/mL) in vitro. Specifically, the following selective substrates were used for the respective enzymes: PH (1 μM) for CYP1A2, DIC (1 μM) for CYP2C9, MP (90 μM) for CYP2C19, DM (1 μM) for CYP2D6, CZX (10 μM) for CYP2E1, Tes (1 μM) for CYP3A4, SN38 (1 μM) for UGT1A1, CACD (100 μM) for UGT1A3, Sero (20 μM) for UGT1A6, and Prop (1 μM) for UGT1A9. All substrates were dissolved in methanol or DMSO. The incubation procedure was carried out as mentioned above, and the reaction was terminated with VER (20 ng/mL) in ESI+ mode and CLP (200 ng/mL) in ESI− mode. In the ex vivo experiments, the activity of enzymes was measured by quantifying the production of various metabolites (nM/mg protein/min). The metabolites and their corresponding enzymes are as follows: APAP from PH, 4-OH-DIC from DIC, 4-OH-MP from MP, DXO from DM, 6-OH-CZX from CZX, 6-OH-Tes from Tes, SN38-G from SN38, CACD-G from CACD, Sero-G from Sero, Prop-G from Prop. The measurements were performed using multiple reaction monitoring (MRM) transitions, which are specific mass spectrometry transitions used for quantification. The optimized parameters for each metabolite, such as declustering potential and collision energy, were described in Supplementary Table 1. All experiments were conducted in triplicate, to ensure accuracy and reproducibility.

In data set [3] the test system is Cyp2e1. In words: DME activity ex vivo in MLMs and MKMs: CYP2E1 (6-OH-CZX from CZX). On the set-up: species or system mice; key: ↑: up-regulation; ↓: down-regulation; –: no change. On the procedure: as §1, with “The incubation procedure was carried out as mentioned above, and the reaction was terminated with VER (20 ng/mL) in ESI+ mode and CLP (200 ng/mL) in ESI− mode.” left out, “The metabolites and their corresponding enzymes are as follows: APAP from PH, 4-OH-DIC from DIC, 4-OH-MP from MP, DXO from DM, 6-OH-CZX from CZX, 6-OH-Tes from Tes, SN38-G from SN38, CACD-G from CACD, Sero-G from Sero, Prop-G from Prop.” left out, “The optimized parameters for each metabolite, such as declustering potential and collision energy, were described in Supplementary Table 1. All experiments were conducted in triplicate, to ensure accuracy and reproducibility.” left out

The subject of data set [4] is Ugt1a1. In words: DME activity ex vivo in MLMs and MKMs: UGT1A1 (SN38-G from SN38). Also noted: species or system mice; key to UGT1A1 Enzymatic activity: ↑: up-regulation; ↓: down-regulation; –: no change. The protocol: as §1
In data set [5] the test system is UGT1A6. Nature of the data set: DME activity ex vivo in MLMs and MKMs: UGT1A6 (Sero-G from Sero). Also noted: species or system mice; key to UGT1A6 Enzymatic activity: ↑: up-regulation; ↓: down-regulation; –: no change. The protocol: as §1
Data set [6] can be described thus: Stability in tissue homogenate. The data set is classed as in vitro ADME. On the procedure: The stability of the KPI solution was examined after storage at 4 °C for 24 h and incubation at 37 °C for 4 h, which was conducted using the QC samples at three concentrations (five samples for each concentration). Stability in plasma and tissue homogenate was assessed by testing samples stored at both 4 °C and room temperature for 24 h.

[7] abbreviates: liver microsomes of mice pretreated 7 days p.o.

Take `CC1CCC2C(C=CC(C)C2C(=O)c2c(O)c(C3(O)CCC(O)C4OC43)cn(O)c2=O)C1` (stereo not shown) [N-hydap, N-Hydroxyapiosporamide]: the Km in data set [1] was found to be 125 µM. The “CYP2D6 Enzymatic activity” value in data set [2] (Kidney) was “↑”; in data set [2] (Liver) it was “↓”. The “CYP2D6 inhibitor, experimental results” value in data set [2] (Table 4 experimental column) was “Inhibition in the liver”. In data set [2] (setting [7]), the “reduction of formation rate of DXO vs control” value is 54%. Also, the “CYP2E1 Enzymatic activity” value in data set [3] (Kidney) was “↑”; in data set [3] (Liver) it was “↓”. Moreover, the “UGT1A1 Enzymatic activity” value is “–” in data set [4] (Kidney) and “↑” in data set [4] (Liver). The “elevation of formation rate of SN38-G” value in data set [4] (MLMs, range stated jointly for APAP, SN38-G, 6-OH-Tes and CDCA-G) is on record as 12%-331%. For the same compound, the entries for the “UGT1A6 Enzymatic activity” value in data set [5] (Kidney) and in data set [5] (Liver) were “–” and “↓”, respectively. For the same compound, the “reduction of formation rate of Sero-G vs control” value in data set [5] (setting [7]) was determined as 72%. Also, the “stability, Accuracy (Bias, %)” value was 102.62% in data set [6] (60 nM, 4℃ for 24h); 103.17% in data set [6] (60 nM, room temperature for 24h); 103.40% in data set [6] (150 nM, 4℃ for 24h); 99.13% in data set [6] (150 nM, room temperature for 24h); 105.16% in data set [6] (500 nM, 4℃ for 24h); 93.38% in data set [6] (500 nM, room temperature for 24h).
